Data reported in patent US7119229B2 (priority 2001, dated 2006).

Assays:
[1] = test system: WP2 uvrA strains (tryptophan auxotrophic strains); assay: Reverse mutation assay (Ames test), E. coli WP2 uvrA
Protocol: This assay is carried out to test mutagenicity of chemical substances using histidine auxotrophic strains that are one of Salmonella Typhimurium mutants. […] When various mutagens are added to the culture medium, only revertants generated by reverse mutation survive.
Ames test was carried out using […]. […] After incubation, the number of revertant colonies was counted. 3 plates were prepared for each test and the average was calculated.

[2] = test system: A 549 (human non-small cell lung); assay: SRB cytotoxicity assay, A549; assay type: cell-based; settings: A549, 72 h, read-out: ED50 A549
Protocol: (§1) Human tumor cells, including MCF-7 (human breast adenomatous tumor), MCF-7/DOX (adriamycin resistant cell strain), MRS-SA (human uterine sarcoma), MES-SA/DX5 (adriamycin resistant cell strain), A 549 (human non-small cell lung), SKOV-3 (human ovarian), SKMEL-2 (human melanoma), XF-498 (human CNS), HCT-15 (human colon) were incubated at 37° C. in the presence of 5% CO2 using a DMEM culture medium. The respective cells were seeded into each well of 96-well plates at a concentration of 2×10^3˜5×10^3 cells/well. […] Each cell line of the resultant plates was fixed with trichloroacetic acid (TCA), stained with 0.4% SRB solution and rinsed with 1% acetic acid. Thereafter, the dye was dissolved in 10 mM Tris base to measure the optical density (OD) at 520 nm.

[3] = test system: BALB/c mouse spleen cells, T cells activated with concanvalin A (ConA); assay: Immunosuppressive effect test using BALB/c mouse spleen cells, ConA (T cells); assay type: cell-based; settings: 2 μg/ml of ConA, 72 hours, MTS, FIGS. 2 and 3
Protocol: This test was carried out to determine the immunosuppressive effect of an immunosuppressive candidate material by checking anti-proliferation of T cells and B cells. To identify the proliferation inhibitory extent, responding cells (BALB/c mouse spleen cells) were treated with an immunosuppressive candidate material, lipopolysaccharide (LPS) as a B cell activator and concanvalin A (ConA) as a T cell activator. It is known that the responding cells treated with LPS induce proliferation of B cells and those treated with ConA induce proliferation of T cells.
Responding cells (BALB/c mouse spleen cells) were seeded into each well of 96-well plates at a concentration of 2×10^5 cells/well. […] After culturing for 72 hours at a CO2 incubator, a 20 μl MTS solution was added to each well, followed by further culturing for 2 to 4 hours and measuring OD at 490 nm using ELISA.

[4] = test system: MES-SA/DX5 (adriamycin resistant cell strain); assay: SRB cytotoxicity assay, MES-SA/DX5; assay type: cell-based; settings: Homo sapiens, MES-SA/Dx5, 72 h, read-out: ED50 MES-SA/DX5
Protocol: as §1

[5] = test system: MES-SA (human uterine sarcoma); assay: SRB cytotoxicity assay, MES-SA; assay type: cell-based; settings: 72 h, read-out: ED50 MES-SA
Protocol: as §1

COc1cc2c(c(OC)c1OC)-c1ccc(OC)c(=O)cc1[C@@H](NC(=O)c1cccc(CO[N+](=O)[O-])c1)CC2 [Compound 6, 3-nitrooxymethyl-N-(1,2,3,10-tetramethoxy-9-oxo-5,6,7,9-tetrahydro-benzo[a]heptarene-7-yl)-benzamide]
Colony/Plate S-9 Mixture (+) ([1]; 317.5 μg/Plate): 12 Colony/Plate
Colony/Plate S-9 Mixture (−) ([1]; 317.5 μg/Plate): 16 Colony/Plate
Colony/Plate S-9 Mixture (+) ([1]; 625 μg/Plate): 12 Colony/Plate
Colony/Plate S-9 Mixture (−) ([1]; 625 μg/Plate): 9 Colony/Plate
Colony/Plate S-9 Mixture (+) ([1]; 1250 μg/Plate): 12 Colony/Plate
Colony/Plate S-9 Mixture (−) ([1]; 1250 μg/Plate): 10 Colony/Plate
Colony/Plate S-9 Mixture (+) ([1]; 2500 μg/Plate): 9 Colony/Plate
Colony/Plate S-9 Mixture (−) ([1]; 2500 μg/Plate): 8 Colony/Plate
Colony/Plate S-9 Mixture (+) ([1]; 5000 μg/Plate): 13 Colony/Plate
Colony/Plate S-9 Mixture (−) ([1]; 5000 μg/Plate): 11 Colony/Plate
EC50 [2]: 0.1 nM
anti-proliferation of T cells [3]: remarkable anti-proliferous effect
EC50 [4]: 773 nM
EC50 [5]: 0.2 nM
